From patent US12168003B2, “Selective inhibition of T follicular helper cells for treatment of autoimmune disorders” (priority 2019, dated 2024)

Tested on: TFH cells
Test: OVA/Alum immunization with 4EGI-1 throughout the response
Type: in vivo, mouse
Description: Single cell suspensions were stained with a viability marker diluted 1:1000 in PBS for 10 minutes, washed in PBS, and stained with antibodies to specific cell surface markers. Viability dye, antibody clones, and dilutions used to identify these populations are detailed in Table 2. Identification of cellular subsets in mice is detailed in FIGS. 1A-1N, 3A-3C, and 6A-6C). In brief, the following gating strategy was used to identify mouse TFH cells (CD4^+ PD1^+ CXCR5^+), TFR cells (CD4^+ PD1^+ CXCR5^+ Foxp3^+), IL-21^+ CD4^+ T cells (CD4^+ VFP^3+), IL-4^+ CD4^+ T cells (CD4^+ GFP^+) OT2 T cells (CD4^+ CD45.2^+ Vβ5^+), OT2 TFH cells (CD4^+ CD45.2^+ Vβ5^+ PD1^+ CXCR5^+), 2D2 T cells (CD4^+ CD45.2^+ Vα3.2^+), TFH-like 2D2 T cells (CD4^+ CD45.2^+ […]), plasma cells (B220^− CD138^+), plasmablasts (B220^mid CD138^+), GC B cells (B220^+ GL7^+ Fas^+), Light zone GC B cells (B220^+ GL7^+ Fas^+ CD86^+), dark zone GC B cells (B220^+ GL7^+ Fas^+ CXCR4^+), IgG1 switched GC B cells (B220^+ GL7^+ Fas^+ IgG1^+), OVA-specific GC B cells (B220^+ GL7^+ Fas^+ OVA-647^+), skin neutrophils (Ly6G^+ CD11b^+), lung eosinophils (SiglecF^+CD11c^−), brain and SC CD4^+ T cells (CD45^+ CD4^+). CD4^+ T cell expression of surface ICOS, PD-1, CXCR5, CD28, SLAM, OX-40 and intranuclear BCL6 was also determined. All flow cytometry procedures were performed on a ZE5 Cell Analyzed (Bio-Rad) and analyzed using FlowJo software (TreeStar).
OVA protein (Sigma A5503) was diluted in PBS and then in 20 mg/mL Imject Alum (ThermoFisher 77161) and mixed at room temperature for 30 minutes prior to i.p. injection of 100 μg OVA in 200 μL. When stated, mice were treated i.p. daily from day 0 to 6 or day 0 to 13 (just for TFR analysis) following OVA/Alum immunization with 25 mg/kg 4EGI-1 (MedChemExpress) or from day 7 to 13 following OVA/Alum immunization with 50 mg/kg or 75 mg/kg 4EGI-1. Vehicle control mice were administered 6 μL DMSO in 194 μL PBS i.p.
Spleens from OVA/Alum immunized mice treated with vehicle or 4EGI-1 were harvested, embedded in OCT, and frozen immediately on dry ice. Five-micron thick cryosections were cut and fixed in acetone for 10 min. Slides were blocked with 1% BSA and stained with anti-CD4 conjugated to Alexa Fluor 647 and anti-B220 Alexa Fluor 555. Antibody clones are detailed in Table 2. Following 3 washes with PBS, slides were mounted with DAPI fluoromount (VECTASHIELD) and sealed with clear nail polish. Staining was visualized and tiled using a Zeiss 700 laser scanning inverted confocal microscope.
B cell (Alexa fluor 555) and CD4^+ T cell (Alexa fluor 647) channels were split using FIJI, and B cell zones were manually outlined. This outline was overlaid upon the CD4^+ T cell stain and intensity of CD4^+ T cell staining within these zones was measured using FIJI and normalized to a fixed area of 500 microns
PVDF-coated 96-well plates (Millipore) were activated with methanol for 2 minutes, washed with PBS, and coated with 4 μg/mL OVA overnight at 4° C. Plates were blocked with 1% BSA for 2 hours at 37° C. prior to incubation with 1×10^7 splenocytes in RPMI containing 2% Ultra-low IgG FCS, 55 μM 2ME, and 100 U/mL penicillin and 100 μg/mL streptomycin in the top well. Cells were diluted by 1/2 each row going down the plate and incubated immobile overnight at 37° C. Plates were washed with water+0.05% Tween 20 for 5 min prior to 3 washes in PBS+0.05% Tween-20 for 10 minutes. Plates were incubated with 1:1000 HRP-coupled goat anti-mouse IgG1 antibody (Southern Biotech) in PBS+0.05% Tween 20 for 2 h prior to 3 washes in PBS+0.05% Tween 20 and incubation in tetramethylbenzidine (TMB) ELISA substrate buffer (ThermoFisher). Plates were washed once in distilled deionized water and spots were manually enumerated and antibody-secreting cells (ASC) per million splenocytes was determined.
For quantification of OVA-specific IgG1, high-binding 96-well plates (Costar) were coated with 10 μg/mL OVA protein. […]

[1] = cytokine reporter mice, OVA-Alum immunization

O=C(O)C(Cc1ccccc1[N+](=O)[O-])=NNc1nc(-c2ccc(Cl)c(Cl)c2)cs1 (mixture of isomers) [4EGI-1]
reduction of TFH cells in spleen (25 mg/kg daily, OVA/Alum, day 7): 3.5 fold | overall CD4+ T cell numbers (25 mg/kg daily, OVA/Alum, spleen, day 7): did not alter | CD4+ T cell activation (CD44high) (25 mg/kg daily, OVA/alum): did not affect | CD4+ T cell division (25 mg/kg daily, OVA/alum): did not affect | CD4+ T cell expression of CD28 (25 mg/kg daily, OVA/alum): decreased by half | CD4+ T cell expression of OX40 (25 mg/kg daily, OVA/alum): not affected | CD4+ T cell expression of SLAM (25 mg/kg daily, OVA/alum): decreased by half | levels of expression of ICOS on CD4+ T cells (25 mg/kg daily, OVA/alum): did not affect | reduction of expression of PD-1 on splenic CD4+ T cells (25 mg/kg daily, OVA/alum): more than half | reduction of expression of intranuclear BCL6 in splenic CD4+ T cells (25 mg/kg daily, OVA/alum): more than half | reduction of expression of surface CXCR5 on splenic CD4+ T cells (25 mg/kg daily, OVA/alum): more than half | infiltration of CD4+ T cells in B cell zones (25 mg/kg daily, OVA/alum, splenic sections): almost abolished | reduction of TFR cells (4EGI-1 for 14 days, measured at day 14, OVA/Alum): 3 fold | serum OVA-specific IgG1 antibody (OVA/Alum, ELISA): reduced by half | OVA-specific IgG1 antibody secreting cells (ASCs) (OVA/Alum, ELISPOT, splenocytes): almost abolished | decrease of GC B cells in the CD86+ light zone (LZ) (OVA/Alum, spleen, day 7): 3 fold | decrease of GC B cells in the CXCR4+ dark zone (DZ) (OVA/Alum, spleen, day 7): 3 fold | decrease of GC B cells that are class switched IgG1+ (OVA/Alum, spleen, day 7): 3 fold | decrease of OVA-specific GC B cells (OVA/Alum, spleen, day 7): 3 fold | decrease of number of total GC B cells (OVA/Alum, spleen, day 7): 3 fold | reduction of number of total plasma cells (OVA/Alum, spleen, day 7): 2 fold | reduction of number of total plasmablasts (OVA/Alum, spleen, day 7): 2 fold | decrease of total number of CD4+ T cells producing IL-4 (GFP+) in the spleen [1]: 2.5 fold | decrease of total number of CD4+ T cells producing IL-21 (VFP+) in the spleen [1]: 2.5 fold
